# Data taken from patent EP0391644B1, “Aryl-substituted rhodanine derivatives” (ELI LILLY AND COMPANY, priority 1989, dated 1990).
# Several values for one entry are separate records, joined by “and”; a condition that tells them apart may be missing. Identical values can stand only once.
# What was measured:
# [1] = test system: adjuvant-induced arthritis; test: Developing Adjuvant-Induced Arthritis Test in Rats; type: in vivo, male Lewis-Wistar rats; details: Rattus norvegicus, po, 720 h; 50 mg/kg P.O. x 29; AUC of uninjected paw volumes, Days 16 through 30; read-out: % Inhibition of Uninjected Paw Volume Inflammation
# [2] = test system: Collagen-Induced Arthritis; test: Collagen-Induced Arthritis Assay; type: in vivo, inbred Lewis male rats; details: 5 days per week, hindpaw volume
# Protocol: Type II collagen was isolated from bovine articular cartilage by the method of Strawich and Nimni [Biochemistry, 10, 3905 (1971)]. The collagen was dissolved in 0.1 M acetic acid and stored at -20°C. Type II collagen solution was diluted to 2 mg/ml concentration and emulsified thoroughly with an equal volume of incomplete Freund's adjuvant (ICFA). The emulsion containing approximately 0.5 mg of collagen was injected intradermally on day 0 to groups of 6 inbred Lewis male rats (Charles River Breeders; 170-200 g) at various sites in the dorsal area. The hindpaw volumes of each rat were measured and recorded three times a week throughout the test period to assess the inflammatory reaction. The test group animals received compounds under test as suspensions in carboxymethylcellulose vehicle, by oral gavage, 5 days per week (Monday-Friday), beginning on day 1. Control animals received vehicle without a test compound. At the end of the test (day 28 or 30), the blood of these animals was drawn by cardiac puncture and the serum anti-type II collagen antibody levels were estimated by passive hemaglutination technique, using glutaraldehyde treated sheep red cells, to which type II collagen is conjugated [Avrameas et al., Immunochemistry, 6, 67 (1969); Andriopoulos et al., Arth. Rheum., 19, 613 (1976)]. The cellular response or delayed-type hypersensitivity response to type II collagen was measured by the radiometric ear index assay [Kostiala, Immunology, 33, 561 (1977)]. In certain experiments, the bone damage occurring because of immunization with type II collagen and the effects of drugs were determined from the radiographs of the hind-paws of two or three representative animals from each group. Injections of ICFA without collagen II were employed in some rats as a negative control; these rats received only carboxymethycellulose vehicle during the test.
# The % inhibition was calculated according to the following formula: % inhibition = [1-(Vt - Vv)/(Vc - Vv)] X 100 [formula] where Vt is the hindpaw volume of a compound-treated animal (test group), Vc is the hindpaw volume of a non-compound-treated animal (carboxymethylcellulose vehicle only-the control group), and Vv is the hindpaw volume of a vehicle (carboxymethylcellulose) treated animal which received ICFA with no collagen II (negative control group).
# inflammation = test: Carrageenin Assay; type: in vivo; details: Rattus norvegicus, po, carrageenin-injected hind paws of rats, read-out: Percent Inhibition; for inhibition in vivo at 50 mg/kg: 50 mg/kg orally by gavage
# Protocol: The compounds were evaluated for antiinflammatory activity in the test method described by C.A. Winter, Proc. Soc. Exp. Biol. Med., 111, 544 (1962). In this test, inflammation is created by injecting carrageenin into the hind paws of rats. Test compounds are administered prior to injection to determine percent inhibition of the subsequent inflammation in comparison with control animals.
# Dystrophic mice (dy/dy) = test: Muscular Dystrophy Animal Model; type: in vivo
# Protocol: Dystrophic mice (dy/dy) were obtained from Jackson Laboratories after weaning (approximately 21 days) and treatment with the compounds shown in Table V was begun at the first sign of dystrophy. The compounds that were tested were administered in the diet and lifespan was measured during the course of treatment. The food and water sources were located in different parts of the cage requiring the animals to walk from the food source to the water source to survive.
# [3] = 0.03 percent by weight of compound in diet
SMILES,inhibition in vivo at 50 mg/kg [1],% inhibition ([2]; 50 mg/kg by oral gavage),inhibition in vivo at 50 mg/kg (inflammation),% inhibition ([2]; 30 mg/kg by oral gavage),Average Life Span (Dystrophic mice (dy/dy); [3]),Average Life Span (Dystrophic mice (dy/dy); 0.08 percent by weight of compound in diet),Average Life Span (Dystrophic mice (dy/dy); 0.1 percent by weight of compound in diet),Average Life Span (Dystrophic mice (dy/dy); 0.3 percent by weight of compound in diet),inhibition in vivo at 30 mg/kg (inflammation; 30 mg/kg orally by gavage)
"CC(C)(C)c1cc(CC2SCNC2=O)cc(C(C)(C)C)c1O (stereo not shown) [Example 3, 5-{[3,5-bis(1,1-dimethylethyl)-4-hydroxyphenyl]methyl}-4-thiazolidinone]",10%,79%,12%,,,,,,
"CC(C)(C)c1cc(C=C2SCNC2=O)cc(C(C)(C)C)c1O [Example 2, 5-{[3,5-bis(1,1-dimethylethyl)-4-hydroxyphenyl]methylene}-4-thiazolidinone]",81%,100%,46%,91% and 50%,57 days,116 days and 73 days,108 days,74 days,
"CC(C)(C)c1cc(C=C2SCOC2=O)cc(C(C)(C)C)c1O [Example 17, 4-{[3,5-bis(1,1-dimethylethyl)-4-hydroxyphenyl]methylene}-1,3-oxothiolan-5-one]",61%,,18%,,112 days,,,,
"CCCN1CSC(=Cc2cc(C(C)(C)C)c(O)c(C(C)(C)C)c2)C1=O [Example 15, 5-{[3,5-bis(1,1-dimethylethyl)-4-hydroxyphenyl]methylene}-3-propyl-4-thiazolidinone]",40%,,42%,,,,,,
"COC(=O)N1CSC(=Cc2cc(C(C)(C)C)c(O)c(C(C)(C)C)c2)C1=O [Example 4, 5-{[3,5-bis(1,1-dimethylethyl)-4-hydroxyphenyl]methylene}-4-oxo-3-thiazolidinecarboxylic acid, methyl ester]",23%,5%,65%,,,,,,
"CC(C)(C)c1cc(C=C2SC(=S)NC2=O)cc(C(C)(C)C)c1O [Example 1, 5-{[3,5-bis(1,1-dimethylethyl)-4-hydroxyphenyl]-methylene}-2-thioxo-4-thiazolidinone]",41%,100% and 53%,,,,,,,67%
